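Each compound was tested at five concentrations against cells in 96-well plates for 48 hours. Abbreviation: GI50, concentration required for 50% inhibition of growth. TGI is the concentration that stops growth completely.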
Key:
Assay in all cases: growth of human tumour cells (NCI), 48 h
[1] = test system: 786-0 renal
[2] = test system: A498 renal
[3] = test system: A549 NSCLC
[4] = test system: ACHN renal
[5] = test system: BT-549 breast
[6] = test system: CCRF-CEM leukemia
[7] = test system: COLO 205 colon
[8] = test system: DU-145 prostate
[9] = test system: EKVX NSCLC
[10] = test system: HCC-2998 colon
[11] = test system: HCT-116 colon
[12] = test system: HCT-15 colon
[13] = test system: HL-60(TB) leukemia
[14] = test system: HOP-62 NSCLC
[15] = test system: HOP-92 NSCLC
[16] = test system: HT29 colon
[17] = test system: IGROV1 ovarian
[18] = test system: K-562 leukemia
[19] = test system: KM12 colon
[20] = test system: LOX IMVI melanoma
[21] = test system: M14 melanoma
[22] = test system: MALME-3M melanoma
[23] = test system: MCF7 breast
[24] = test system: MDA-MB-231 breast
[25] = test system: MDA-MB-435
[26] = test system: MOLT-4 leukemia
[27] = test system: NCI-H226 lung
[28] = test system: NCI-H23 lung
[29] = test system: NCI-H460 lung
[30] = test system: NCI/ADR-RES ovarian
[31] = test system: OVCAR-3 ovarian
[32] = test system: OVCAR-4 ovarian
[33] = test system: OVCAR-5 ovarian
[34] = test system: OVCAR-8 ovarian
[35] = test system: PC-3 prostate
[36] = test system: RPMI-8226 leukemia
[37] = test system: RXF 393 renal
[38] = test system: SF-268 CNS
[39] = test system: SF-295 CNS
[40] = test system: SF-539 CNS
[41] = test system: SK-MEL-28 melanoma
[42] = test system: SK-MEL-5 melanoma
[43] = test system: SK-OV-3 ovarian
[44] = test system: SN12C renal
[45] = test system: SNB-19 CNS
[46] = test system: SNB-75 CNS
[47] = test system: SR leukemia
[48] = test system: SW-620 colon
[49] = test system: T-47D breast
[50] = test system: TK-10 renal
[51] = test system: U251 CNS
[52] = test system: UACC-257 melanoma
[53] = test system: UACC-62 melanoma
[54] = test system: UO-31 renal

Work on `c1ccc(CNCCN(CCNCc2ccccn2)Cc2ccc3ccccc3c2)nc1` yielded a GI50 [1] of 2.34 µM, a TGI [1] of 8.15 µM and a GI50 [2] of 1.86 µM. It also gave a TGI [2] of 3.71 µM, a GI50 [3] of 2.33 µM and a TGI [3] of 5.38 µM. It also gave a GI50 [4] of 1.05 µM, a TGI [4] of 2.43 µM and a GI50 [5] of 2.87 µM. It also gave a TGI [5] of 10.9 µM, a GI50 [6] of 3.08 µM and a TGI [6] of 10.3 µM. For the same compound, the GI50 [7] was 2.27 µM, the TGI [7] was 4.57 µM and the GI50 [8] was 2.79 µM. For the same compound, the TGI [8] was 10.3 µM, the GI50 [9] was 1.71 µM and the TGI [9] was 7.58 µM. The GI50 [10] was 1.83 µM, the TGI [10] was 3.39 µM and the GI50 [11] was 2.37 µM. The TGI [11] was 8.36 µM, the GI50 [12] was 1.16 µM and the TGI [12] was 5.01 µM. For the same compound, the GI50 [13] was 2.4 µM, the TGI [13] was 5.77 µM and the GI50 [14] was 2.17 µM. It also gave a TGI [14] of 6.69 µM, a GI50 [15] of 1.79 µM and a TGI [15] of 4.64 µM. The GI50 [16] was 3.04 µM, the TGI [16] was 7.93 µM and the GI50 [17] was 2.3 µM. It also gave a TGI [17] of 7.5 µM, a GI50 [18] of 2.97 µM and a TGI [18] of 8.73 µM. It also gave a GI50 [19] of 2.14 µM, a TGI [19] of 4.85 µM and a GI50 [20] of 2 µM. For the same compound, the TGI [20] was 4.5 µM, the GI50 [21] was 1.64 µM and the TGI [21] was 3.39 µM. It also gave a GI50 [22] of 1.65 µM, a TGI [22] of 3.63 µM and a GI50 [23] of 2.86 µM. For the same compound, the TGI [23] was 10.5 µM, the GI50 [24] was 1.68 µM and the TGI [24] was 3.81 µM. For the same compound, the GI50 [25] was 1.99 µM, the TGI [25] was 4.08 µM and the GI50 [26] was 2.58 µM. The TGI [26] was 7.5 µM, the GI50 [27] was 1.77 µM and the TGI [27] was 3.53 µM. For the same compound, the GI50 [28] was 2.26 µM, the TGI [28] was 6.19 µM and the GI50 [29] was 2.14 µM. The TGI [29] was 5 µM, the GI50 [30] was 2.4 µM and the TGI [30] was 6.96 µM. The GI50 [31] was 1.83 µM, the TGI [31] was 3.74 µM and the GI50 [32] was 1.88 µM. The TGI [32] was 5.3 µM, the GI50 [33] was 1.63 µM and the TGI [33] was 4.03 µM. It also gave a GI50 [34] of 2.27 µM, a TGI [34] of 6.29 µM and a GI50 [35] of 1.92 µM. It also gave a TGI [35] of 6.13 µM, a GI50 [36] of 2.67 µM and a TGI [36] of 6.65 µM. It also gave a GI50 [37] of 2.03 µM, a TGI [37] of 5.17 µM and a GI50 [38] of 2.89 µM. The TGI [38] was 12.3 µM, the GI50 [39] was 1.42 µM and the TGI [39] was 3.55 µM. It also gave a GI50 [40] of 1.64 µM, a TGI [40] of 3.1 µM and a GI50 [41] of 1.75 µM. For the same compound, the TGI [41] was 3.36 µM, the GI50 [42] was 1.76 µM and the TGI [42] was 3.16 µM. It also gave a GI50 [43] of 1.94 µM, a TGI [43] of 5.11 µM and a GI50 [44] of 3.21 µM. For the same compound, the TGI [44] was 11.1 µM, the GI50 [45] was 2.68 µM and the TGI [45] was 8.95 µM. The GI50 [46] was 2.03 µM, the TGI [46] was 9.98 µM and the GI50 [47] was 2.88 µM. It also gave a TGI [47] of 7.83 µM, a GI50 [48] of 2.36 µM and a TGI [48] of 6.32 µM. For the same compound, the GI50 [49] was 2.59 µM, the TGI [49] was 9.06 µM and the GI50 [50] was 1.36 µM. The TGI [50] was 6.58 µM, the GI50 [51] was 2.47 µM and the TGI [51] was 7.39 µM. For the same compound, the GI50 [52] was 2.16 µM, the TGI [52] was 4.69 µM and the GI50 [53] was 2.17 µM. For the same compound, the TGI [53] was 4.7 µM, the GI50 [54] was 0.668 µM and the TGI [54] was 2.3 µM.

From PubChem BioAssay (NCI)
